Results on two compounds are retold here after BindingDB's records for doi:10.1021/jm1002827 (Pfizer, 2010).

Structures are written as SMILES.

The target in the assay is T1, Estrogen receptor (Homo sapiens, UniProt P03372).
T1 sequence (P03372 whole entry): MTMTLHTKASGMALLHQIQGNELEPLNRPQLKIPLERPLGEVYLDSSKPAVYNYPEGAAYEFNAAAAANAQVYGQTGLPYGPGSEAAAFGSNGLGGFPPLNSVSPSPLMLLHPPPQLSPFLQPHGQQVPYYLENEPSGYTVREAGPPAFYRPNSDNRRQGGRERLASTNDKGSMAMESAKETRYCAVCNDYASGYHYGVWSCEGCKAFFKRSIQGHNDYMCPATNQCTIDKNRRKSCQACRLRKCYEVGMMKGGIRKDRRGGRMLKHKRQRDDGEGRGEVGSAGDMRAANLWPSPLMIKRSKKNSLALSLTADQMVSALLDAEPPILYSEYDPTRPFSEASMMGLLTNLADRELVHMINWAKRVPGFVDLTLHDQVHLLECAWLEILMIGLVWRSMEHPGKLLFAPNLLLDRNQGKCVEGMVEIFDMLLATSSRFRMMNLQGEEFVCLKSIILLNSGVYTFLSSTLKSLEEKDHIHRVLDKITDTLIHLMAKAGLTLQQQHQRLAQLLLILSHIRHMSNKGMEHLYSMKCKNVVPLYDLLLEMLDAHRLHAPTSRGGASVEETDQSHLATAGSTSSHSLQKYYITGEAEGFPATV
Kind of assay: Inhibition of estrogen receptor.

What is called IC50 is the concentration that gives 50% inhibition. Low values mean higher potency, high ones lower potency.

In the case of `CCCC1=C(C(=O)OCC)[C@H](c2ccnc3ccccc23)C(C#N)C(C)=N1` (stereo partly drawn) [(R)-Ethyl 5-Cyano-6-methyl-2-propyl-4-quinolin-4-yl-1,4-dihydropyridine-3-carboxylate], the IC50 was above 10 µM.
With `CC1=NC(C)=C(C(=O)OC(C)(C)C)[C@H](c2ccc(F)cc2Cl)C1C#N` (stereo partly drawn) [tert-Butyl (4R)-4-(2-Chloro-4-fluorophenyl)-5-cyano-2,6-dimethyl-1,4-dihydropyridine-3-carboxylate] the figure was above 10 µM.
